Legend:
[1] = target: T1, Peroxisome proliferator-activated receptor delta (Homo sapiens, UniProt Q03181)
T1 sequence (Q03181 whole entry): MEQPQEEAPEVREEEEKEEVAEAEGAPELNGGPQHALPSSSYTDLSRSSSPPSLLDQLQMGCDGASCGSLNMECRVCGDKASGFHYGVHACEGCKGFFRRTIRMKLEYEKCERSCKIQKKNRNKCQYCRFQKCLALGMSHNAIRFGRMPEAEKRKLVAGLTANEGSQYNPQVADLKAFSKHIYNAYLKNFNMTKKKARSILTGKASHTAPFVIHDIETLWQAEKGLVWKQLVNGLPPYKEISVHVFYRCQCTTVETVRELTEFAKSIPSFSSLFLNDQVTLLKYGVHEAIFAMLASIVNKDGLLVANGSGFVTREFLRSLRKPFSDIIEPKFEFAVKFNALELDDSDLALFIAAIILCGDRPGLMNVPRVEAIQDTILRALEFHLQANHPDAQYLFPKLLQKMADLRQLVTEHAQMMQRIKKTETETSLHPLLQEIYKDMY

[2] = target: T1, Peroxisome proliferator-activated receptor delta; format: functional, cell-based, HepG2
[3] = target: T2, Peroxisome proliferator-activated receptor alpha (Homo sapiens, UniProt Q07869)
T2 sequence (Q07869 whole entry): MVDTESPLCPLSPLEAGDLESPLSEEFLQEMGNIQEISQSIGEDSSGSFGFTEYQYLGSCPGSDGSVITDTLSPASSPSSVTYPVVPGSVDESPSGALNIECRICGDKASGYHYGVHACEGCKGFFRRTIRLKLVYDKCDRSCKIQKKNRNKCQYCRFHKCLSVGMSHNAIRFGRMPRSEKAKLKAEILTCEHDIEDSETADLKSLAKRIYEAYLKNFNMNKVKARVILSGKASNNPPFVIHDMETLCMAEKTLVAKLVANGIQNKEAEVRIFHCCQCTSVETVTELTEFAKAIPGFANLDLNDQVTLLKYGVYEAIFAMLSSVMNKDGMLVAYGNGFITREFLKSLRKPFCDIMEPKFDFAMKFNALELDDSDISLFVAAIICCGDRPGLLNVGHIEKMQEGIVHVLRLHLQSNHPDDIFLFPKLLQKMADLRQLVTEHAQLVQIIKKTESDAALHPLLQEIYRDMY

Row | IC50 [1] [nM] | EC50 [2] [nM] | IC50 [3] [nM] | SMILES
1 |  |  | 482 | Cc1nc(-c2ccc(C(F)(F)F)cc2)sc1COc1ccc2c(CC(=O)O)csc2c1
2 | 58 | 227 | 1040 | Cc1nc(-c2ccc(C(F)(F)F)cc2)sc1COc1cc(Cl)c2c(CC(=O)O)csc2c1
3 | 375 | 6360 | 3840 | O=C(O)Cc1csc2cc(OCc3cc(-c4ccc(Cl)cc4)on3)cc(Cl)c12
4 | 37 | 561 | 1470 | Cc1cc(OCc2cc(-c3ccc(C(F)(F)F)cc3)on2)cc2scc(CC(=O)O)c12
5 | 14 | 243 | 679 | Cc1nc(-c2ccc(C(F)(F)F)cc2)sc1COc1ccc2c(CC(=O)O)coc2c1
6 | 237 |  | 683 | Cc1cc2c(CC(=O)O)csc2cc1OCc1sc(-c2ccc(C(F)(F)F)cc2)nc1C
7 | 23 | 638 | 311 | Cc1cc(OCc2cc(-c3ccc(Cl)cc3)on2)cc2scc(CC(=O)O)c12
8 | 11 | 305 | 261 | O=C(O)Cc1csc2cc(OCc3cc(-c4ccc(C(F)(F)F)cc4)on3)ccc12
9 | 97 | 2360 | 1350 | O=C(O)Cc1csc2cc(OCc3cc(-c4ccc(C(F)(F)F)cc4)on3)cc(Cl)c12

More lines, now with the values behind:

Row | SMILES | IC50 [1] [nM] | EC50 [2] [nM] | IC50 [3] [nM]
10 | O=C(O)Cn1ccc2cc(OCc3ccccc3COc3ccc(C(F)(F)F)cc3)ccc21 | 734 | 3080 | > 10000
11 | O=C(O)Cn1ccc2cc(OCc3cccc(COc4ccc(C(F)(F)F)cc4)c3)ccc21 | 13 | 254 | 179
12 | Cc1nc(C(F)(F)F)sc1CSc1ccc2c(ccn2CC(=O)O)c1 | 2.8 | 4 | 172
13 | O=C(O)Cc1csc2cc(OCc3cc(-c4ccc(Cl)cc4)on3)ccc12 | 7.7 | 226 | 3820
14 | O=C(O)Cc1coc2cc(OCc3cc(-c4ccc(C(F)(F)F)cc4)on3)ccc12 | 25 | 1610 | 1420
15 | Cc1cc2c(CC(=O)O)csc2cc1OCc1cc(-c2ccc(Cl)cc2)on1 | 37 | 656 | 5810
16 | O=C(O)Cc1csc2cc(OCc3ccccc3COc3ccc(C(F)(F)F)cc3)ccc12 | 244 | 2230 | 7860
17 | Cc1cc2c(CC(=O)O)csc2cc1OCc1ccccc1COc1ccc(C(F)(F)F)cc1 |  |  | 4680
18 | O=C(O)Cc1csc2cc(OCc3cccc(COc4ccc(C(F)(F)F)cc4)c3)ccc12 |  |  | 963
19 | O=C(O)Cc1csc2cc(OCc3ccc(COc4ccc(C(F)(F)F)cc4)cc3)ccc12 |  |  | 229
20 | O=C(O)Cc1coc2cc(OCc3cccc(COc4ccc(C(F)(F)F)cc4)c3)ccc12 |  |  | 2500
21 | O=C(O)Cc1coc2cc(OCc3ccc(COc4ccc(C(F)(F)F)cc4)cc3)ccc12 | 81 | 3440 | 2380
22 | Cc1nc(C(F)(F)F)sc1COc1ccc2c(ccn2CC(=O)O)c1 | 6.8 | 223 | 550
23 | O=C(O)Cc1coc2cc(OCc3cc(-c4ccc(Cl)cc4)on3)ccc12 | 81 | 323 | 2380
24 | O=C(O)Cn1ccc2cc(OCc3ccc(Oc4ccc(C(F)(F)F)cc4)cc3)ccc21 | 91 | 2810 | 562
25 | O=C(O)Cc1coc2cc(OCc3ccccc3COc3ccc(C(F)(F)F)cc3)ccc12 | 662 | 3120 | > 10000
26 | O=C(O)Cn1ccc2cc(OCc3cc(-c4ccc(C(F)(F)F)cc4)on3)ccc21 | 31 | 1390 | 835

Source: ChEMBL document CHEMBL1149526, “Synthesis and SAR of selective benzothiophene, benzofuran, and indole-based peroxisome proliferator-activated receptor delta agonists” (Bioorg Med Chem Lett, 2007)
